Experimental data taken from US20230037862A1, “SYNTHETIC AGONISTS OF TLR4 RECEPTOR” (UNIVERSITÀ DEGLO STUDI DI MILANO - BICOCCA, priority 2017, published 2023).
Entries after “also recorded” stand apart in the source; their conditions may differ.

Assays:
[1] = repeated dosages; cited from earlier work
Escherichia coli = settings: one dose one day prior to microbial inoculation; cited from earlier work
[2] = galactosamine-sensitized mice; cited from earlier work
[3] = tested on: murine macrophages and neutrophil granulocytes; settings: cited from earlier work
[4] = tumour-affected patients; cited from earlier work
infective agent = settings: once or thrice, myelo-suppressed or immunocompetent mice; cited from earlier work
CD14 = settings: human peripheral blood cells; cited from earlier work
HEK-Blue™ Null2 cells = assay: HEK-Blue Null2 counter-assay (SEAP reporter, no TLR4/MD-2/CD14); format: cell-based; settings: 16-18 hours
Description: (§1) HEK-Blue™ hTLR4 (FIG. 1A) and HEK-Blue™ Null2 (FIG. 1B) cells were treated with the indicated concentrations of compounds FP11, FP111, and with LPS (100 ng/mL) and incubated for 16-18 hours. Results were normalized to stimulation with LPS alone, and are expressed as mean of percentage ±ES. of at least three independent experiments.
In order to be certain that the agonist effect of compound FP11 be due to the interaction with the TLR4 receptor, the compounds were tested on the HEK-Blue™ Null2 cell line. Said line expresses the same reporter gene of HEK-Blue™ hTLR4 cells (SEAP), but has none of the receptors involved in endotoxin recognition (TLR4, MD-2, CD14).

hTLR4 = biological target: T1, hTLR4 (Homo sapiens, UniProt O00206+Q9Y6Y9); assay: HEK-Blue hTLR4 SEAP reporter assay (NF-κB/AP-1 activation); format: cell-based; settings: HEK-Blue hTLR4 cells, 16-18 hours, SEAP reporter
T1 construct: host or cells: HEK-Blue hTLR4 (HEK cells)
T1 sequence (O00206 24-839): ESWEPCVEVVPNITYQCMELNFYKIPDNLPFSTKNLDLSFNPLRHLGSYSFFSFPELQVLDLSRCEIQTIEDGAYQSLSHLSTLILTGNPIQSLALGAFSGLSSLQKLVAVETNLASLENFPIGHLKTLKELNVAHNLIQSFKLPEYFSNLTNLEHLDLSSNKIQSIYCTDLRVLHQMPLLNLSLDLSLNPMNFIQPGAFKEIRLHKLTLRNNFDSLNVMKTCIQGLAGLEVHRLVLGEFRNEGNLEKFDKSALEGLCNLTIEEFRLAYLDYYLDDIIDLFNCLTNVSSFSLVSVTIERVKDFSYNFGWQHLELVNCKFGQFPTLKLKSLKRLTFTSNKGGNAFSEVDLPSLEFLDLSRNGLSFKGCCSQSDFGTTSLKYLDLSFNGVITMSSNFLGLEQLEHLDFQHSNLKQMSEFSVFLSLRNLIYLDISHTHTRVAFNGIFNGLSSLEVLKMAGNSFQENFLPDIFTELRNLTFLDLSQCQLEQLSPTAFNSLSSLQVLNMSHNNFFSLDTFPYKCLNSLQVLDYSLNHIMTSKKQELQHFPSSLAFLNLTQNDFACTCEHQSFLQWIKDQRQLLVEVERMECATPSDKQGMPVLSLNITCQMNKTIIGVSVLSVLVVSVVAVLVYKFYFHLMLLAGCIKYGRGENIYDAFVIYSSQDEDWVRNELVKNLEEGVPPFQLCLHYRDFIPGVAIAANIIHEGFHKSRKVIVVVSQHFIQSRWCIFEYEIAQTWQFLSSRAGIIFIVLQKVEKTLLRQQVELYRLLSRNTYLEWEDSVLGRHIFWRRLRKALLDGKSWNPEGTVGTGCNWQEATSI
T1 sequence (Q9Y6Y9 17-160 limits assumed): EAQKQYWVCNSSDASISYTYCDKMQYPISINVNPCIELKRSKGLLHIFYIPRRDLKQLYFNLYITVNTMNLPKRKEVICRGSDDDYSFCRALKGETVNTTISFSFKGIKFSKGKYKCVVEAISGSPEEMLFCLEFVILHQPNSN
Description: as §1
HEK-Blue™ hTLR4 cells were treated with increasing concentrations of compound FP11 and of LPS and incubated for 16-18 hours. Results were normalized to maximum activation of the reporter produced by LPS (FIG. 2A) and to maximum activation of the reporter produced by the compound itself (FIG. 2B). Data were fitted to a sigmoidal four-parameter logistic equation in order to determine IC50 values, and expressed as mean of percentage ±ES of at least three independent experiments.
HEK-Blue™ hTLR4 cells are HEK cells transfected so as to stably express human receptors hTLR4, hMD-2, and hCD14 for endotoxin recognition. In addition, said cells have a reporter gene encoding for a secreted alkaline phosphatase (SEAP) μlaced under the control of specific transcription factors (NF-κB and AP-1) activated by the TLR4 signaling pathway. Therefore, the presence of LPS or of an agonist of TLR4 causes receptor dimerization, activation of the signaling pathway and of transcription factors NF-κB and AP-1, and finally SEAP production and secretion into the culture medium. SEAP levels can be subsequently quantitated by incubating the medium with compound p-nitrophenylphosphate (pNPP) and monitoring with a spectrophotometer the formation of p-nitrophenol chromogenic product at 405 nm.
HEK-Blue™ hTLR4 cells (InvivoGen) were cultured according to manufacturer's instruction. […]
Cells were detached using a cell scraper, counted and seeded in a 96-well multiwell plate at a density of 4×10^4 cells per well. […]
The wells' optical density was determined using a microplate reader set at 405 nm.
The results were normalized with positive control (LPS alone) and expressed as a mean of percentage ±SEM of at least three independent experiments.

[5] = biological target: T2, purified human MD-2 receptor (Homo sapiens, UniProt Q9Y6Y9); assay: MD-2-bound fluorescent molecule (bis-ANS) displacement assay; format: binding; settings: MD-2 200 nM, bis-ANS 200 nM
T2 sequence (Q9Y6Y9 19-160): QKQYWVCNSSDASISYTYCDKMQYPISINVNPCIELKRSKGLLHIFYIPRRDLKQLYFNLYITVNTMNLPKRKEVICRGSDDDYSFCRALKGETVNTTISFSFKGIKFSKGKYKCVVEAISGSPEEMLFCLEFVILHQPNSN
Description: therefore, TLR4 modulators that interact with MD-2 compete with compound bis-ANS, and are able to displace it from MD-2.
Fluorescence was measured on PerkinElmer fluorimeter LS 55 (PerkinElmer, UK) as previously described^[5].
All measurements were done at 20° C. in a 5×5 mm quartz glass cuvette (Hellma Suprasil, Müllheim, Germany). MD-2 protein (200 nM) and 1,1′-Bis(anilino)-4,4′-bis (naphtalene)-8,8′ disulfonate (bis-ANS, 200 nM) were mixed and incubated until reaching stable relative fluorescence units (RFUs) emitted at 420-550 nm under excitation at 385 nm.
Compounds, at different concentrations, were then added, followed by relative fluorescence unit (RFU) measurement at 420-550 nm.

[6] = biological target: T2, purified human MD-2 receptor; assay: Biotinylated LPS displacement from MD-2 hydrophobic pocket (ELISA); format: binding; settings: increasing concentrations, highest 160 μM
Description: The ability to displace LPS from MD-2 hydrophobic pocket was assessed by using an ELISA assay. Molecules FP11 and FP111 were added at increasing concentrations to MD-2 which had previously been incubated with biotinylated LPS.
The ability of the compounds to displace LPS from MD-2 hydrophobic pocket was determined by ELISA.
A microtiter plate was coated overnight at 4° C. with 100 μL/well of 5 μg/mL chicken polyclonal anti-MD-2 antibodies, diluted in 50 mM Na2CO3 buffer, pH 9.6, and blocked with 1% BSA in PBS. After washing, 1 μM MD-2 with biotin-labeled LPS was added and incubated for 2 h. After washing, the compounds were added at different concentrations and incubated for 1.5 h.
After washing, 0.5 μg/mL HRP-conjugated streptavidin (Sigma) in PBS was added, followed by detection at 420 nm after the addition of 100 μL of ABTS (Sigma). Chicken anti-MD-2 polyclonal antibodies were prepared against recombinant MD-2 by GenTel (Madison, Wis., USA),

[7] = biological target: T2, purified human MD-2 receptor; assay: Anti-MD-2 antibody (9B4) competition, antibody-sandwich ELISA; format: binding; settings: up to 20 μM
Description: The direct binding of molecules FP11 and FP111 to MD-2 was analyzed by using a monoclonal antibody binding MD-2, but not LPS-bound MD-2 (Viriyakosol, S., et al., Characterization of monoclonal antibodies to human soluble MD-2 protein. Hybridoma (Larchmt), 2006. 25(6): p. 349-57).
Anti-MD-2 monoclonal antibody (9B4) specifically binds an epitope near the MD-2 hydrophobic pocket, which is available for 9B4 antibody binding only when the MD-2 hydrophobic pocket is empty. Compound FP11 is accountable for a decrease of 9B4 antibody binding to MD-2 equal to 95% at a concentration of 20 μM (FIG. 3E).
The method of antibody-sandwich ELISA for the detection of the binding of compounds to MD-2 was modified from a previous study.
A microtiter plate was coated overnight at 4° C. with 100 μL/well of 5 μg/mL of chicken polyclonal anti-MD-2 antibodies, diluted in 50 mM Na2CO3 buffer, pH 9.6, and blocked with 1% BSA in PBS. After washing, 1 μM MD-2 with tested compounds was added and incubated for 2 h.
Mouse anti-MD-2 mAb (0.1 μg/mL 9B4) and goat antimouse IgG conjugated with HRP (0.1 μg/mL) in PBS were added, followed by detection at 420 nm after the addition of 100 μL of ABTS (Sigma).
Chicken anti-MD-2 polyclonal antibodies were prepared against recombinant MD-2 by GenTel (Madison, Wis., USA), monoclonal mouse anti-MD-9B4 antibodies were from eBioscience (San Diego, Calif., USA), and secondary goat antimouse IgG conjugated with horseradish peroxidase was from Santa Cruz Biotechnology (Santa Cruz, Calif., USA).

[8] = biological target: T2, purified human MD-2 receptor; assay: Surface plasmon resonance binding to MD-2
Description: Surface plasmon resonance (SPR) experiments enable the study of direct interactions between the molecules to be characterized and MD-2.
The binding affinity of the compounds to recombinant MD-2 was determined using a Biacore X100 with an NTA sensor chip (Biacore, GE Healthcare, Uppsala, Sweden). Briefly, 0.5 μM MD-2 (in 50 mM TRIS, 150 mM NaCl, 0.5% Tween 20, pH 7.5) was immobilized onto the sensor chip previously activated with 1 min pulse of 10 mM NiSO4. The first flow cell was used as a reference surface to control nonspecific binding.
Both flow cells were incubated with the analyte (in PBS, 5% DMSO, 5% EtOH, pH 7.5) at a flow rate of 10 μL/min at 25° C. at increasing concentrations. The data were analyzed with Biacore Evaluation software. KD values were calculated by global fitting of the equilibrium binding responses from various concentrations of analytes using a 1:1 Langmuir binding model.

SMILES	duration of transient resistance to endotoxin-related lethal risks [1] [week]	effect on curative effects of antibiotics (Escherichia coli)	factor of toxicity reduction compared to parent endotoxin (Salmonella abortus equi) [2]	stimulation of release of IL-6, IL-8 and TNF-α [3]	effect on granulocyte counts and serum cytokine levels [4]	safety and tolerability of administration [4]	protective effect on prophylactic administration (infective agent)	blocking of compound-induced TNF-α release by monoclonal antibodies for CD-14 (CD14)	activation of transcription factors NF-κB and AP-1 in cells without TLR4, MD-2, CD14 (HEK-Blue™ Null2 cells)	TLR4 agonist activity (activation of NF-κB and AP-1) (hTLR4)	decrease of bis-ANS fluorescence / inhibition of bis-ANS binding to MD-2 [5]	ability to displace biotinylated LPS from MD-2 hydrophobic pocket [6]	prevention of monoclonal antibody 9B4 binding to MD-2 [7]	direct binding to MD-2 (SPR) [8]
CCCCCCCCCCC[C@@H](O)CC(=O)N[C@H]1[C@@H](OP(=O)(O)O)O[C@H](CO)[C@@H](OC(=O)C[C@H](O)CCCCCCCCCCC)[C@@H]1OC(=O)C[C@H](O)CCCCCCCCCCC [SDZ MRL 953]	≥ 1	dramatically increased the curative effects of antibiotics administered	at least 10^4	potent activity in stimulating the release of inflammatory cytokines	increases granulocyte counts and serum levels of G-CSF and interleukin-6 (IL-6), but not of pro-inflammatory cytokines TNF-α, IL-1b, and IL-8	safe and of excellent tolerability	highly protective effect	is not blocked	–	–	–	–	–	–
CCCCCCCCCCCCCC(=O)NC1[C@H](OP(=O)(O)O)OC(COP(=O)(O)O)[C@@H](OC(=O)CCCCCCCCCCCCC)[C@@H]1OC(=O)CCCCCCCCCCCCC (stereo partly drawn) [FP111, 1,6-O-Phosphoryl-2-deoxy-4-O-tetradecanoyl 3-O-tetradecanoyl-2-tetradecanoylamino-α-D-glucopiranoside]	–	–	–	–	–	–	–	–	unable to activate transcription factors NF-κB and AP-1	completely inactive	not able to induce a decrease of compound bis-ANS fluorescence; also recorded: but not FP111, inhibits the binding of bis-ANS to MD-2	unable to displace biotinylated LPS; also recorded: but not FP111, displaces biotinylated LPS	unable to cause a decrease of 9B4 antibody binding; also recorded: but not FP111, prevents the binding of monoclonal antibody to MD-2	but not FP111, directly binds MD-2; also recorded: does not bind MD-2
